In the supplement of paper PMC11061612:

What was measured:
[1] = tested on: HCC1806 (Breast Carcinoma); experiment: Bliss excess, mean over the matrix (fraction); higher = more synergy
Procedure, shortened: (§1)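 Cell lines in DMEM/F12 or RPMI with 10% FBS were plated in 1536-well plates, held 24 hours at 37°C, 5% CO2, then given two-drug dose matrices for 72 hours (DMSO typically 0.2%). Viability was read by CellTiter-Glo 2.0 luminescence and scaled as inhibition from 0 (vehicle wells) to 1 (blank wells). Combination Emax is the second-highest inhibition in the matrix; Bliss excess is observed combination effect minus expected EA + EB − EA·EB, EA and EB being single-agent effects.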

[2] = tested on: B-CPAP (Thyroid Gland Carcinoma); experiment: as above
Procedure, shortened: as §1

[3] = tested on: LU-135 (Small Cell Lung Carcinoma); experiment: as above
Procedure, shortened: as §1

[4] = tested on: NCI-H2085 (Non-Small Cell Lung Carcinoma); experiment: as above
Procedure, shortened: as §1

[5] = tested on: ME-1 (Acute Myeloid Leukemia); experiment: as above
Procedure, shortened: as §1

[6] = tested on: DoTc2-4510 (Cervical Carcinoma); experiment: as above
Procedure, shortened: as §1

AGS (Gastric Carcinoma) = experiment: as above
Procedure, shortened: as §1

[7] = tested on: Calu-3 (Lung Adenocarcinoma); experiment: as above
Procedure, shortened: as §1

[8] = tested on: LNCaP-Clone-FGC (Prostate Carcinoma); experiment: as above
Procedure, shortened: as §1

[9] = tested on: CAL-148 (Breast Carcinoma); experiment: as above
Procedure, shortened: as §1

[10] = tested on: KURAMOCHI (Ovarian Carcinoma); experiment: as above
Procedure, shortened: as §1

[11] = tested on: HT-1376 (Bladder Carcinoma); experiment: as above
Procedure, shortened: as §1

[12] = tested on: SK-ES-1 (Ewing's Sarcoma); experiment: as above
Procedure, shortened: as §1

ES4 (Ewing's Sarcoma) = experiment: as above
Procedure, shortened: as §1

[13] = tested on: EC-GI-10 (Esophageal Squamous Cell Carcinoma); experiment: combination Emax (second highest fraction inhibited in the dose matrix, 72 h); higher = more inhibition; extreme values may be limits of the assay
Procedure, shortened: as §1

42-MG-BA (Glioblastoma) = experiment: as above
Procedure, shortened: as §1

T98G (Glioblastoma) = experiment: as above
Procedure, shortened: as §1

[14] = tested on: TE-15 (Esophageal Squamous Cell Carcinoma); experiment: as above
Procedure, shortened: as §1

[15] = tested on: Hs-578-T (Breast Carcinoma); experiment: as above
Procedure, shortened: as §1

[16] = tested on: KP-1N (Pancreatic Carcinoma); experiment: as above
Procedure, shortened: as §1
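For Bliss excess, mean over the matrix in this document: after 72 h of two-drug dosing.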

Row | SMILES | Bliss excess [1] | Bliss excess [2] | Bliss excess [3] | Bliss excess [4] | Bliss excess [5] | Bliss excess [6] | Bliss excess (AGS (Gastric Carcinoma)) | Bliss excess [7] | Bliss excess [8] | Bliss excess [9] | Bliss excess [10] | Bliss excess [11] | Bliss excess [12] | Bliss excess (ES4 (Ewing's Sarcoma)) | combination Emax [13] | combination Emax (42-MG-BA (Glioblastoma)) | combination Emax (T98G (Glioblastoma)) | combination Emax [14] | combination Emax [15] | combination Emax [16]
1 | CN(C)CCCOc1ccc(-c2ccc3ncc4c(c3c2)n(C2CCOCC2)c(=O)n4C)cn1 [AZD0156] + O=C(c1cc(Cc2n[nH]c(=O)c3ccccc23)ccc1F)N1CCN(C(=O)C2CC2)CC1 [Olaparib] (first compound max 3 µM, partner max 3 µM) | 0.191 | 0.0785 | 0.0632 | 0.0267 | -0.0065 | -0.043 | 0.0736 | -0.0153 | 0.0755 | 0.0072 | -0.0737 | -0.0417 | 0.393 | 0.116 | 0.436 | 0.402 | 0.287 | 0.253 | 0.519 | 0.277
2 | CC1(C)CCC(CN2CCN(c3ccc(C(=O)NS(=O)(=O)c4ccc(NCC5CCOCC5)c([N+](=O)[O-])c4)c(Oc4cnc5[nH]ccc5c4)c3)CC2)=C(c2ccc(Cl)cc2)C1 [Venetoclax] + Cc1cc2ncnn2cc1Nc1ncc2c(n1)n(C1CCOCC1)c(=O)n2C [AZD7648] (first compound max 1 µM, 7x7, partner max 10 µM) | 0.0043 | -0.0146 | -0.087 | -0.0535 | 0.0319 | -0.0413 | -0.0505 | 0.0113 | -0.0963 | -0.0143 | -0.0605 | -0.0226 | 0.0203 | -0.0452 | 0.436 | 0.43 | 0.352 | 0.295 | 0.831 | 0.108
3 | COc1cc2c(cc1OCCCCCOc1cc3c(cc1OC)C(=O)N1C=C(C)C[C@H]1C=N3)N=C[C@@H]1CC(C)=CN1C2=O [SG3199] + O=C(c1cc(Cc2n[nH]c(=O)c3ccccc23)ccc1F)N1CCN(C(=O)C2CC2)CC1 [Olaparib] (first compound max 0.001 µM, 7x7, partner max 10 µM) | -0.0132 | 0.0434 | 0.0232 | -0.0323 | -0.013 | -0.0123 | -0.0061 | -0.0266 | 0.0189 | -0.0294 | -0.0693 | -0.0503 | -0.0326 | -0.0097 | 0.198 | 0.247 | 0.114 | 0.166 | 0.256 | 0.18
4 | COc1cccc(OCCCN)c1-c1cc(Nc2cnc(C#N)cn2)n[nH]1 [Prexasertib] + CN(C)CCCOc1ccc(-c2ccc3ncc4c(c3c2)n(C2CCOCC2)c(=O)n4C)cn1 [AZD0156] (first compound max 1 µM, 7x7, partner max 1 µM) | -0.0262 | -0.0156 | 0.0508 | 0.006 | -0.0167 | -0.0208 | -0.0052 | -0.0668 | -0.0374 | -0.0115 | -0.0425 | -0.007 | 0.0075 | 0.0147 | 0.735 | 0.937 | 0.899 | 0.831 | 0.942 | 0.298
5 | Cc1cc2ncnn2cc1Nc1ncc2c(n1)n(C1CCOCC1)c(=O)n2C [AZD7648] + O=C(c1cc(Cc2n[nH]c(=O)c3ccccc23)ccc1F)N1CCN(C(=O)C2CC2)CC1 [Olaparib] (first compound max 10 µM, 7x7, partner max 10 µM) | -0.0343 | -0.0034 | 0.0148 | -0.0444 | -0.004 | -0.0428 | -0.007 | -0.0351 | -0.0049 | -0.0545 | -0.0418 | -0.0549 | 0.0254 | 0.0132 | 0.341 | 0.464 | 0.203 | 0.182 | 0.507 | 0.257
6 | Cc1cc2ncnn2cc1Nc1ncc2c(n1)n(C1CCOCC1)c(=O)n2C [AZD7648] + CCN(CCO)CCCOc1ccc2c(Nc3cc(CC(=O)Nc4cccc(F)c4)[nH]n3)ncnc2c1 [AZD2811] (first compound max 10 µM, 7x7, partner max 1 µM) | 0.071 | -0.0264 | -0.0223 | 0.0409 | 0.0036 | -0.0115 | 0.0641 | 0.002 | -0.003 | -0.0213 | 0.0084 | -0.0382 | 0.0065 | 0.0076 | 0.44 | 0.472 | 0.467 | 0.283 | 0.623 | 0.134
7 | COc1cccc(OCCCN)c1-c1cc(Nc2cnc(C#N)cn2)n[nH]1 [Prexasertib] + Cc1cc2ncnn2cc1Nc1ncc2c(n1)n(C1CCOCC1)c(=O)n2C [AZD7648] (first compound max 1 µM, 7x7, partner max 10 µM) | -0.0193 | 0.0049 | 0.025 | -0.0481 | -0.0048 | 0.0159 | -0.018 | 0.0049 | -0.0617 | 0.0235 | -0.0628 | -0.0373 | -0.0257 | -0.0121 | 0.713 | 0.908 | 0.893 | 0.831 | 0.925 | 0.246
8 | C[C@@H]1COCCN1c1cc(C2([S@](C)(=N)=O)CC2)nc(-c2ccnc3[nH]ccc23)n1 [AZD6738] + O=C(c1cc(Cc2n[nH]c(=O)c3ccccc23)ccc1F)N1CCN(C(=O)C2CC2)CC1 [Olaparib] (first compound max 10 µM, 7x7, partner max 10 µM) | 0.0103 | 0.0364 | 0.0331 | -0.0571 | -0.0056 | 0.0652 | -0.0108 | 0.0139 | -0.0297 | 0.0123 | -0.0208 | -0.0687 | 0.0804 | 0.0608 | 0.747 | 0.576 | 0.817 | 0.738 | 0.898 | 0.425
9 | NC1(C(=O)N[C@@H](CCO)c2ccc(Cl)cc2)CCN(c2ncnc3[nH]ccc23)CC1 [Capivasertib] + C[C@@H]1COCCN1C2=NC(=NC(=C2)C3(CC3)[S@](=N)(=O)C)C4=C5C=CNC5=NC=C4 [AZD6738] (first compound max 10 µM, 7x7, partner max 10 µM) | -0.0333 | -0.0465 | 0.0393 | -0.0192 | -0.0086 | -0.0192 | -0.0449 | -0.0381 | 0.0099 | 0.0222 | -0.0376 | -0.0153 | -0.0831 | -0.0919 | 0.7 | 0.775 | 0.867 | 0.879 | 0.823 | 0.323
10 | CN(CCO)CC[C@H](CSc1ccccc1)Nc1ccc(S(=O)(=O)NC(=O)c2ccc(N3CCC([C@@H](O)c4ccccc4-c4ccc(Cl)cc4)CC3)cc2)cc1S(=O)(=O)C(F)(F)F [AZD4320] + Cc1cc2ncnn2cc1Nc1ncc2c(n1)n(C1CCOCC1)c(=O)n2C [AZD7648] (first compound max 1 µM, 7x7, partner max 10 µM) | -0.058 | -0.0275 | 0.0109 | -0.0399 | 0.0237 | -0.0144 | -0.0298 | -0.0547 | -0.0622 | -0.0011 | -0.0239 | -0.17 | 0.0809 | 0.0147 | 0.232 | 0.312 | 0.255 | 0.0708 | 0.63 | 0.0993
11 | CN(C)CCCOc1ccc(-c2ccc3ncc4c(c3c2)n(C2CCOCC2)c(=O)n4C)cn1 [AZD0156] + CCN(CCO)CCCOc1ccc2c(Nc3cc(CC(=O)Nc4cccc(F)c4)[nH]n3)ncnc2c1 [AZD2811] (first compound max 1 µM, 7x7, partner max 1 µM) | -0.003 | -0.0224 | -0.0008 | -0.0194 | -0.0275 | -0.0111 | -0.0047 | -0.0295 | -0.0257 | -0.0262 | -0.0357 | -0.0665 | -0.0011 | 0.03 | 0.471 | 0.444 | 0.33 | 0.0454 | 0.565 | 0.293
12 | Cn1cnc2c(F)c(Nc3ccc(Br)cc3Cl)c(C(=O)NOCCO)cc21 [Selumetinib] + C=CCn1c(=O)c2cnc(Nc3ccc(N4CCN(C)CC4)cc3)nc2n1-c1cccc(C(C)(C)O)n1 [AZD1775] (first compound max 10 µM, partner max 1 µM) | 0.0042 | -0.0704 | -0.0337 | -0.0751 | -0.0255 | -0.0164 | 0.0064 | -0.0405 | -0.15 | -0.0543 | 0.0427 | -0.0093 | -0.0706 | -0.0679 | 0.919 | 0.282 | 0.699 | 0.74 | 0.577 | 0.257
13 | CC1(C)CCC(CN2CCN(c3ccc(C(=O)NS(=O)(=O)c4ccc(NCC5CCOCC5)c([N+](=O)[O-])c4)c(Oc4cnc5[nH]ccc5c4)c3)CC2)=C(c2ccc(Cl)cc2)C1 [Venetoclax] + C=CCn1c(=O)c2cnc(Nc3ccc(N4CCN(C)CC4)cc3)nc2n1-c1cccc(C(C)(C)O)n1 [AZD1775] (first compound max 1 µM, partner max 1 µM) | -0.026 | -0.0835 | -0.0538 | -0.063 | 0.0289 | 0.0075 | -0.0506 | -0.0074 | -0.0599 | 0.0589 | 0.0572 | -0.0226 | 0.0455 | -0.0268 | 0.903 | 0.287 | 0.889 | 0.796 | 0.909 | 0.44
